Measured values: PMC8878317, “Chemogenomics identifies acetyl-coenzyme A synthetase as a target for malaria treatment and prevention” (Cell Chemical Biology, 2022)

Test system: P. falciparum 3D7 parasites
Assay: Metabolomic profiling of compound-treated parasites (LC/MS);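 as to Metabolite data: 3-Phosphoglycerate: Log2 fold change in abundance versus untreated parasite controls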;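 as to Metabolite data: Myo-Inositol: Log2 fold change in abundance versus untreated parasite controls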;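 as to Metabolite data: N-Carbamoyl-L-Aspartate: Log2 fold change in abundance versus untreated parasite controls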;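 as to Metabolite data: Nicotinate: Log2 fold change in abundance versus untreated parasite controls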
Type: cell-based
Parameters: Metabolite data: dTMP / Metabolite data: GMP / Metabolite data: S-Adenosyl-L-Homocysteine / Metabolite data: 1_3-Bisphosphoglyceric acid: scale not given here
How it was run: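 Magnetically purified trophozoites (1×10^8 parasites/mL) recovered 1 h in RPMI 1640, incubated a further 2.5 h, quenched in 90% methanol with labeled aspartate. Extracts analysed by reverse-phase C18 LC with negative-mode Orbitrap MS; peak areas normalized to internal standards, blank-subtracted and averaged by condition.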

COc1cc2[nH]c(C)c(-c3ccc(Oc4ccc(OC(F)(F)F)cc4)cc3)c(=O)c2cc1Cl [ELQ-300] was tested, and the “Metabolite data: 1_3-Bisphosphoglyceric acid” value was 0, the “Metabolite data: 2_3-Diphosphoglyceric acid” value was -0.1098 and the “Metabolite data: 3-Phosphoglycerate” value was 0.01477. The “Metabolite data: 4-Aminobutyrate” value was 0.29, the “Metabolite data: 4-Phosphopantothenate” value was -0.3711 and the “Metabolite data: 4-phosphopantetheine” value was 0. For the same compound, the “Metabolite data: 5-aminopentanoic acid” value was 0, the “Metabolite data: 5-phosphoribosyl-1-pyrophosphate” value was 0 and the “Metabolite data: 6-Phospho-D-Gluconate” value was 0.1987. The “Metabolite data: ADP-D-Glucose” value was -0.03292, the “Metabolite data: Acetyl-CoA” value was -0.7931 and the “Metabolite data: Acetyllysine” value was -0.0938. For the same compound, the “Metabolite data: Aconitate” value was 0.3201, the “Metabolite data: CDP” value was -0.9142 and the “Metabolite data: CDP-Ethanolamine” value was -0.4266. For the same compound, the “Metabolite data: CDP-choline” value was 0, the “Metabolite data: CMP” value was -0.5539 and the “Metabolite data: CTP” value was -0.7898. The “Metabolite data: Citrate/Isocitrate” value was 0.1898, the “Metabolite data: Cyclic-AMP” value was 0.1104 and the “Metabolite data: Dihydroorotate” value was 5.061. The “Metabolite data: FAD” value was 0.09303, the “Metabolite data: FMN” value was -1.009 and the “Metabolite data: Fructose-1,6-Bisphosphate” value was 0.1196. For the same compound, the “Metabolite data: Fumarate” value was 0.1542, the “Metabolite data: GDP” value was -0.04006 and the “Metabolite data: GMP” value was 0.4588. For the same compound, the “Metabolite data: GTP” value was 0.1697, the “Metabolite data: Glucose-1/6-Phosphate” value was 0.2608 and the “Metabolite data: Glutathione Disulfide” value was -0.1199. The “Metabolite data: Hexose” value was 0, the “Metabolite data: Hydroxyisocaproic acid” value was 0 and the “Metabolite data: Indole” value was 0.2721. For the same compound, the “Metabolite data: Ketoleucine” value was 0, the “Metabolite data: L-arginino-succinate” value was 0 and the “Metabolite data: Lactate” value was -0.08432. The “Metabolite data: Malate” value was 0.0586, the “Metabolite data: Myo-Inositol” value was -0.4815 and the “Metabolite data: N-Acetyl-Glutamate” value was 0.1479. The “Metabolite data: N-Acetyl-L-Alanine” value was -0.6073, the “Metabolite data: N-Acetyl-L-Ornithine” value was -0.1715 and the “Metabolite data: N-Carbamoyl-L-Aspartate” value was 4.761. For the same compound, the “Metabolite data: NAD+” value was 0.09044, the “Metabolite data: NADH” value was 1.43 and the “Metabolite data: NADP+” value was -0.1602. The “Metabolite data: NADPH” value was 3.029, the “Metabolite data: Nicotinate” value was 0.05305 and the “Metabolite data: Octulose 8/1-Phosphate” value was -0.704. For the same compound, the “Metabolite data: Orotate” value was 0.01858, the “Metabolite data: PD” value was -0.006669 and the “Metabolite data: PE” value was -0.3407. For the same compound, the “Metabolite data: PEEK” value was -0.3859, the “Metabolite data: Phenol Red” value was 0 and the “Metabolite data: Pyroglutamic acid” value was 0.05668. The “Metabolite data: S-Adenosyl-L-Homocysteine” value was -1.868, the “Metabolite data: S-methyl-5'-thioadenosine” value was -0.1055 and the “Metabolite data: SD” value was -0.2791. The “Metabolite data: Sedoheptulose Bisphosphate” value was 0.0682, the “Metabolite data: UDP” value was -1.596 and the “Metabolite data: UDP-D-Glucose” value was -0.0232. The “Metabolite data: UDP-D-Glucuronate” value was 0.002049, the “Metabolite data: UDP-N-Acetyl-Glucosamine” value was -0.1795 and the “Metabolite data: UMP” value was -0.8903. The “Metabolite data: UTP” value was -1.292, the “Metabolite data: a-ketoglutarate” value was 0.1255 and the “Metabolite data: acetyl-aspartate” value was 0. For the same compound, the “Metabolite data: arginine” value was 0, the “Metabolite data: asparagine” value was 0 and the “Metabolite data: aspartate” value was 0. For the same compound, the “Metabolite data: biotin” value was 0, the “Metabolite data: chlorpropamide” value was 0 and the “Metabolite data: coenzyme A” value was 0. The “Metabolite data: dAMP” value was -0.0907, the “Metabolite data: dATP” value was 0.4618 and the “Metabolite data: dCDP” value was -0.107. The “Metabolite data: dCMP” value was -0.1246, the “Metabolite data: dCTP” value was -0.4381 and the “Metabolite data: dGDP/ADP” value was -0.01599. The “Metabolite data: dGMP/AMP” value was -0.06466, the “Metabolite data: dGTP/ATP” value was 0 and the “Metabolite data: dTDP” value was -1.258. The “Metabolite data: dTMP” value was -1.023, the “Metabolite data: dTTP” value was -1.011 and the “Metabolite data: folate” value was 0. For the same compound, the “Metabolite data: glucono-lactone” value was 0, the “Metabolite data: glutamate” value was 0 and the “Metabolite data: glutamine” value was 0. The “Metabolite data: glutathione” value was 0, the “Metabolite data: histidine” value was 0 and the “Metabolite data: hydroxyproline/Aminolevulinate” value was 0. For the same compound, the “Metabolite data: isoleucine” value was 0, the “Metabolite data: leucine” value was 0 and the “Metabolite data: maleic acid” value was 0. For the same compound, the “Metabolite data: methionine” value was 0, the “Metabolite data: nicotinamide mononucleotide” value was 0 and the “Metabolite data: orotidine-5'-phosphate” value was 0.
